Laboratory results reported in article PMC11508620, “Assessing the Potential of 1,2,3-Triazole-Dihydropyrimidinone Hybrids Against Cholinesterases: In Silico, In Vitro, and In Vivo Studies” (International Journal of Molecular Sciences, 2024).
Where two headings read alike, the source gives them in different places.

Columns and labels:
[1] = tested on: BuChE; conditions: cited from earlier work
[2] = target: equine serum BuChE (eqBuChE) (Equus caballus, UniProt P81908); experiment: biochemical; format: biochemical; conditions: for IC50: [S] = 112 µM, 0.1 M phosphate buffer pH 8.0, 25 °C, mean ± SD; for Ki: eqBuChE
[3] = target: T1, eqBuChE (Equus caballus, UniProt P81908); experiment: STD-NMR study with eqBuChE; format: binding, equine; conditions: hybrid 2.5 mM, eqBuChE 2.5 μM
T1 construct: purified enzymes of animal origin, namely electrophorus electricus AChE (eeAChE) and equine serum BuChE (eqBuChE); purchased Sigma–Aldrich; host or cells: equine serum
Method: STD-NMR is a very useful validation technique for docking studies, which we have used previously with success.
The NMR spectroscopy experiments were performed on a Bruker Avance III 400 MHz spectrometer equipped with a 5 mm broadband (PABBO BB/19F-1H/D Z-GRD) resonance probe head. The STD-NMR experiments were realized according to our established method. Basically, NMR and STD-NMR experiments were carried out with solvent suppression and a 10 ms spinlock filter after the 90◦ pulse to reduce residual signals from the protein. For selective saturation, cascades of Gaussian pulses with a length of 50 ms and 40–60 dB of attenuation were employed, with an interpulse delay of 1 ms. The on-resonance and off-resonance frequencies were set to 0 and 12,000 Hz, respectively. STD-NMR controls were performed using the ligand itself. Blank experiments were performed to guarantee the absence of direct saturation of the ligand proton signals. The relaxation delay was properly adjusted so that the experiment time length was kept constant at 6.5 s. Water suppression at 1880 Hz (4.7 ppm) was conducted. Specifically, the saturation time to obtain the STD buildup curves was recorded at 0.25, 0.5, 1, 2, 3, 4, and 5 s. A 5 μM eqBuChE solution was prepared in a D2O. Five mM stock solutions were prepared for hybrids A1 and B4. […]. The final concentrations of ligand and enzyme were […], respectively.

[4] = target: T2, electrophorus electricus AChE (eeAChE) (Electrophorus electricus, UniProt O42275); experiment: biochemical; conditions: [S] = 121 µM; 0.1 M phosphate buffer pH 8.0, 25 °C; mean ± SD
T2 construct: purified enzymes of animal origin, namely electrophorus electricus AChE (eeAChE) and equine serum BuChE (eqBuChE); purchased Sigma–Aldrich; host or cells: electric eel (animal origin)
Method: In order to evaluate the inhibitory activity against cholinesterase enzymes (AChE and BuChE), well-established in vitro models were used—purified enzymes of animal origin, namely electrophorus electricus AChE (eeAChE) and equine serum BuChE (eqBuChE). Hybrids A1–3 and B1–5 (Figure 3) were evaluated in vitro for cholinesterase inhibition using Ellman’s colorimetric method. […] The values are expressed as the mean ± standard deviation (SD).
The enzymatic activity of electrophorus electricus AChE (eeAChE) and equine serum BuChE (eqBuCHE) was assessed using the Ellman colorimetric assay, with minor modifications. […] Enzyme kinetics were monitored using UV-Vis spectroscopy using 0.875 mM 5,5′-dithiobis(2-nitrobenzoic acid) (DTNB) (Ellman’s reagent) as a chromogenic agent.
For this purpose, GraphPad Prism 8.02 software was used to plot %I vs. [I] (5 different concentrations) via a non-linear regression.

[5] = FRAP antioxidant assay; conditions: for Antioxidant capacity, FRAP method: 6–200 µM; for Trolox Equivalent Antioxidant Capacity (TEAC), FRAP method: at 200 μM, compared to Trolox
[6] = tested on: Artemia salina; experiment: Artemia salina lethal toxicity assay; format: in vivo; conditions: 24 h
Method: (§1) Artemia salina was used for in vivo general toxicity assessment of the compounds A1–3 and B1–5.
(§2) The ARTOXKIT M protocol was used. The percentage of dyed nauplii of Artemia salina, grown in the presence of variable concentrations of the inhibitor compounds (A1–3 and B1–5) (0.01 to 100 µM).
(§3) Saline water with 1% DMSO was used as a blank.
(§4) In parallel, a K2Cr2O7 test was performed as quality control.

[7] = tested on: AChE; conditions: cited from earlier work
[8] = Artemia salina lethal toxicity assay; format: in vivo; conditions: in vivo
Method: as §1, §2, §3, §4

[9] = tested on: eqBuChE; conditions: cited from earlier work

T1 sequence (P81908 whole entry): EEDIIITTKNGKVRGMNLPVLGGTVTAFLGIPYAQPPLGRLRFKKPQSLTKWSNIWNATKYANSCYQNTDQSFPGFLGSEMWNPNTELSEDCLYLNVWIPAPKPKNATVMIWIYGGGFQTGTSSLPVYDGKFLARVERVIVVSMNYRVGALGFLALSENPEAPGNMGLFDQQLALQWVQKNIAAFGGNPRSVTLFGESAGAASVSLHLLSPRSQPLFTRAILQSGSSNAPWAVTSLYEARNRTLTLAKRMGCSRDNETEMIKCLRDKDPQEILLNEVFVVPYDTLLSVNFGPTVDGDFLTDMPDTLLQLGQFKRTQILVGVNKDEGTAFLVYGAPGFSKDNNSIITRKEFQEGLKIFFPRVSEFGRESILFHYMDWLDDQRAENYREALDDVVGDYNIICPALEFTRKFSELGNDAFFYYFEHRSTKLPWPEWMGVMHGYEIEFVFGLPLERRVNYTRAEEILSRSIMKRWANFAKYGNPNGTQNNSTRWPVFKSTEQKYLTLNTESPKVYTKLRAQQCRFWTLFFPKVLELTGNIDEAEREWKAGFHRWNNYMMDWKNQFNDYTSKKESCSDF
Sequence of equine serum BuChE (eqBuChE) (P81908 whole entry): as above
T2 sequence (O42275 24-633): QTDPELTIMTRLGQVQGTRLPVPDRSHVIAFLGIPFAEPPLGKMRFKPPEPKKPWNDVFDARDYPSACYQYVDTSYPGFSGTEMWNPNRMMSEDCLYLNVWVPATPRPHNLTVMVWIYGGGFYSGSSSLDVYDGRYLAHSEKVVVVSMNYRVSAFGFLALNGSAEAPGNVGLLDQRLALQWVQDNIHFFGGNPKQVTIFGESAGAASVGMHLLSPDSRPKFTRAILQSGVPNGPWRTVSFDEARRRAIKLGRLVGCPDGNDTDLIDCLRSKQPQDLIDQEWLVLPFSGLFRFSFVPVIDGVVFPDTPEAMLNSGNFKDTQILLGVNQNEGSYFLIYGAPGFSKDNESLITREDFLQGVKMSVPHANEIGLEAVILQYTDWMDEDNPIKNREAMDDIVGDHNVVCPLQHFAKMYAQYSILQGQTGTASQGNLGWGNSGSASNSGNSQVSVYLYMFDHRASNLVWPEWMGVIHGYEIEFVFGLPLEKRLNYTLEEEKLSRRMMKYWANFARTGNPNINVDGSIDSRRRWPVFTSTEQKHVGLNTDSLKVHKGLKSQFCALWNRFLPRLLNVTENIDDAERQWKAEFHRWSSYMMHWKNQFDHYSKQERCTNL

SMILES | IC50 [2] [µM] | IC50 [4] [µM] | Antioxidant capacity, FRAP method [5] | NOEC (No Observed Effect Concentration) [6] [µM] | further results
CC(=O)c1ccc(OCc2cccc(C(F)(F)F)c2)cc1OCc1cn(CCc2c[nH]c3ccccc23)nn1 [I] |  |  |  |  | IC50 [1]: 0.00013 µM
O=C1NC(Cn2cc(CN3C(=O)C(=O)c4ccccc43)nn2)=C(n2cc(-c3ccccc3)nn2)C(c2ccccc2)N1 (centres unmarked) [Hybrid B4, 1-((1-((2-Oxo-6-phenyl-5-(4-phenyl-1,2,3-triazol-1-yl)-1,2,3,6-tetrahydropyrimidin-4-yl)methyl)-1,2,3-triazol-4-yl)methyl)indoline-2,3-dione] | 1 ± 0.1 | > 100 | null values | 200 | Ki ([2]; inhibition constant for binding to the enzyme-substrate complex, read-out: Kib (converted)): 1.4 µM; Ki ([2]; inhibition constant for binding to the free enzyme, read-out: Kia (converted)): 1.1 µM; Type of inhibition of eqBuChE ([2]; methods of Dixon and Cornish-Bowden): mixed mode of inhibition; STD-NMR attenuation, H11 and H13 of the CH2 groups ([3]; 4 s saturation, H16 set to 100%): 33%
COc1ccc(C2NC(=O)NC(CCc3ccc(O)cc3)=C2C(=O)CCc2ccc(O)cc2)cc1 (centres unmarked) [V] |  |  |  |  | IC50 [7]: 1.34 µM
O=C1NC(Cn2cc(-c3ccccc3)nn2)=C(n2cc(-c3ccccc3)nn2)C(c2ccccc2)N1 (centres unmarked) [Hybrid B1, 4-Phenyl-5-(4-phenyl-1,2,3-triazol-1-yl)-6-((4-phenyl-1,2,3-triazol-1-yl)methyl)-3,4-dihydropyrimidin-2-one] | 53 ± 4 | > 100 | null values | 200 | LC50 at 24 h [8]: > 200 µM
CC(C)[C@@H]1CC[C@@H](C)C[C@@H]1n1cc(CN2C(=O)C(=O)c3ccccc32)nn1 [III] |  |  |  |  | IC50 [9]: 0.46 µM
O=C1NC(Cn2cc(C3CC3)nn2)=C(n2cc(-c3ccccc3)nn2)C(c2ccccc2)N1 (centres unmarked) [Hybrid B3, 6-((4-Cyclopropyl-1H-1,2,3-triazol-1-yl)methyl)-4-phenyl-5-(4-phenyl-1,2,3-triazol-1-yl)-3,4-dihydropyrimidin-2-one] | 58 ± 3 | > 100 | some potential to reduce Fe(III) to Fe(II) | 200 | Trolox Equivalent Antioxidant Capacity (TEAC), FRAP method [5]: 0.257
COc1cc(OC)c2c(=O)c(OCCCCn3cc(CN4C(=O)C(=O)c5ccccc54)nn3)c(-c3ccc(OC)c(OC)c3)oc2c1 [IV] |  |  |  |  | IC50 [9]: 11.2 µM
O=C1NC(Cn2cc(-c3ccccc3)nn2)=C(n2cc(-c3ccccc3)nn2)C(c2ccc(OCc3ccccc3)cc2)N1 (centres unmarked) [Hybrid B5, 4-(4-(Benzyloxy)phenyl)-5-(4-phenyl-1,2,3-triazol-1-yl)-6-((4-phenyl-1,2,3-triazol-1-yl)methyl)-3,4-dihydropyrimidin-2-one] | > 100 | > 100 | some potential to reduce Fe(III) to Fe(II) | 200 | Trolox Equivalent Antioxidant Capacity (TEAC), FRAP method [5]: 0.216
[K+].[K+].[O]=[Cr](=[O])([O-])[O][Cr](=[O])(=[O])[O-] [Hybrid K2Cr2O7, K2Cr2O7, reference compound] |  |  |  |  | LC50 ([6]; reference test): 23.6 µg/mL; LOEC (Lowest Observed Effect Concentration) ([6]; reference test): 18 mg/L; NOEC (No Observed Effect Concentration) ([6]; reference test): 10 mg/L
CC1=C(n2cc(-c3ccccc3)nn2)C(c2ccc(Cl)cc2)NC(=O)N1 (centres unmarked) [Hybrid A2, 4-(4-Chlorophenyl)-6-methyl-5-(4-phenyl-1,2,3-triazol-1-yl)-3,4-dihydropyrimidin-2-one] | 24 ± 1 | > 100 |  | 200 | 
CCOC(=O)C1=C(C[Se]C(=O)c2ccc(C)cc2)NC(=O)NC1c1ccccc1 (centres unmarked) [VI] |  |  |  |  | IC50 [7]: 7.21 µM
O=C1NC(Cn2cc(-c3ccc(Br)cc3)nn2)=C(n2cc(-c3ccccc3)nn2)C(c2ccccc2)N1 (centres unmarked) [Hybrid B2, 6-((4-(4-Bromophenyl)-1,2,3-triazol-1-yl)methyl)-4-phenyl-5-(4-phenyl-1,2,3-triazol-1-yl)-3,4-dihydropyrimidin-2-one] | > 100 | > 100 | null values | 1 | LOEC (Lowest Observed Effect Concentration) [6]: 100 µM; LC50 at 24 h [8]: > 200 µM
CC1=C(n2cc(-c3ccccc3)nn2)C(c2ccccc2)NC(=O)N1 (centres unmarked) [Hybrid A1, 6-Methyl-4-phenyl-5-(4-phenyl-1,2,3-triazol-1-yl)-3,4-dihydropyrimidin-2-one] | 12 ± 2 | > 100 |  | 200 | STD-NMR attenuation, H3 ([3]; 3 s saturation, H9 set to 100%): 87%; STD-NMR attenuation, H7 ([3]; 3 s saturation, H9 set to 100%): 88%
O=c1ccc2ccc(OCCCCCn3cc(CNc4c5c(nc6ccccc46)CCCC5)nn3)cc2o1 [II] |  |  |  |  | IC50 [1]: 0.006 µM; IC50 [7]: 0.095 µM
CC1=C(n2cc(-c3ccccc3)nn2)C(c2ccc(OCc3ccccc3)cc2)NC(=O)N1 (centres unmarked) [Hybrid A3, 4-(4-(Benzyloxy)phenyl)-6-methyl-5-(4-phenyl-1,2,3-triazol-1-yl)-3,4-dihydropyrimidin-2-one] | > 100 | > 100 |  | 200 | 
